In patent US9518018B2, “3-alkoxy, thioalkyl and amino-4-amino-6-(substituted)picolinates and their use as herbicides” (Dow AgroSciences LLC, priority 2011, dated 2016):
Like-named read-outs stand apart in the source and are kept apart here.

Legend:
[1] = system: ABUTH: velvetleaf (Abutilon theophrasti); assay: Post-Emergent Test I herbicidal activity; assay type: in vivo; conditions: for pest or weed control at 140 g/ha / pest or weed control at 8.75 g/ha / pest or weed control at 17.5 g/ha / pest or weed control at 35 g/ha / pest or weed control at 70 g/ha: Abutilon theophrasti, post-emergence, 336 h, read-out: Visual Growth Reduction (%)-14 Days after Application ABUTH; for pest or weed control at 8.75 g/ha: Table 4, 8.75 g ai/ha; for pest or weed control at 17.5 g/ha: Table 4, 17.5 g ai/ha; for pest or weed control at 35 g/ha: Table 4, 35 g ai/ha; for pest or weed control at 70 g/ha: Table 4, 70 g ai/ha; for GR20 ABUTH: Table 4, growth reduction of 20% of plant growth; for GR20 ABUTH / GR50 ABUTH / GR80 ABUTH: 14 days after application, probit analysis; for GR50 ABUTH: Table 4, growth reduction of 50% of plant growth; for GR80 ABUTH: Table 4, growth reduction of 80% of plant growth
In short: (§1)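 Foliar spray, 187 L/ha, track sprayer; plants at 1st–2nd true leaf, 7–21 d old. Carrier: acetone/DMSO + aqueous acetone/IPA/crop oil/Triton X-155; high rate plus ½×–1/16× dilutions. Subirrigated; visual % injury vs untreated at 14 d.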

[2] = system: CHEAL: lambsquarters (Chenopodium album); assay: Post-Emergent Test I herbicidal activity; assay type: in vivo; conditions: for pest or weed control at 140 g/ha / pest or weed control at 8.75 g/ha / pest or weed control at 17.5 g/ha / pest or weed control at 35 g/ha / pest or weed control at 70 g/ha: Chenopodium album, post-emergence, 336 h, read-out: Visual Growth Reduction (%)-14 Days after Application CHEAL; for pest or weed control at 140 g/ha: Table 3, 140 g ai/ha; for pest or weed control at 8.75 g/ha: Table 4, 8.75 g ai/ha; for pest or weed control at 17.5 g/ha: Table 4, 17.5 g ai/ha; for pest or weed control at 35 g/ha: Table 4, 35 g ai/ha; for pest or weed control at 70 g/ha: Table 4, 70 g ai/ha; for Visual Growth Reduction (%)-14 Days after Application CHEAL: Table 4, 140 g ai/ha; for GR20 CHEAL: Table 4, growth reduction of 20% of plant growth; for GR20 CHEAL / GR50 CHEAL / GR80 CHEAL: 14 days after application, probit analysis; for GR50 CHEAL: Table 4, growth reduction of 50% of plant growth; for GR80 CHEAL: Table 4, growth reduction of 80% of plant growth
In short: as §1

[3] = system: CYPES: yellow nutsedge (Cyperus esculentus); assay: Post-Emergent Test I herbicidal activity; assay type: in vivo; conditions: post-emergence, 336 h, Table 3, 140 g ai/ha, read-out: Visual Growth Reduction (%)-14 Days after Application CYPES
In short: as §1

[4] = system: ECHCG: barnyardgrass (Echinochloa crus-galli); assay: Post-Emergent Test I herbicidal activity; assay type: in vivo; conditions: post-emergence, 336 h, Table 3, 140 g ai/ha, read-out: Visual Growth Reduction (%)-14 Days after Application ECHCG
In short: as §1

[5] = system: EPHHL: wild poinsettia (Euphorbia heterophylla); assay: Post-Emergent Test I herbicidal activity; assay type: in vivo; conditions: post-emergence, 336 h, Table 3, 140 g ai/ha, read-out: Visual Growth Reduction (%)-14 Days after Application EPHHL
In short: as §1

[6] = system: ORYSA: rice (Oryza sativa); assay: Post-Emergent Test I herbicidal activity; assay type: in vivo; conditions: post-emergence, 336 h, Table 3, 140 g ai/ha, read-out: Visual Growth Reduction (%)-14 Days after Application ORYSA
In short: as §1

ZEAMX: corn (Zea mays) = assay: Post-Emergent Test I herbicidal activity; assay type: in vivo; conditions: for GR20 ZEAMX: Table 4, growth reduction of 20% of plant growth; for GR20 ZEAMX / GR50 ZEAMX / GR80 ZEAMX: 14 days after application, probit analysis; for GR50 ZEAMX: Table 4, growth reduction of 50% of plant growth; for GR80 ZEAMX: Table 4, growth reduction of 80% of plant growth; for pest or weed control at 140 g/ha / pest or weed control at 8.75 g/ha / pest or weed control at 17.5 g/ha / pest or weed control at 35 g/ha / pest or weed control at 70 g/ha: Zea mays, post-emergence, 336 h, read-out: Visual Growth Reduction (%)-14 Days after Application ZEAMX; for pest or weed control at 8.75 g/ha: Table 4, 8.75 g ai/ha; for pest or weed control at 17.5 g/ha: Table 4, 17.5 g ai/ha; for pest or weed control at 35 g/ha: Table 4, 35 g ai/ha; for pest or weed control at 70 g/ha: Table 4, 70 g ai/ha
In short: as §1

`COC(=O)c1nc(-c2ccc(Cl)cc2F)cc(N)c1OC` [Compound 6, Methyl 4-amino-6-(4-chloro-2-fluorophenyl)-3-methoxypicolinate] gave a pest or weed control at 140 g/ha ([1]; Table 3, 140 g ai/ha) of 60%, a pest or weed control at 8.75 g/ha [1] of 50% and a pest or weed control at 17.5 g/ha [1] of 75%. For the same compound, the pest or weed control at 35 g/ha [1] was 80%, the pest or weed control at 70 g/ha [1] was 85% and the pest or weed control at 140 g/ha ([1]; Table 4, 140 g ai/ha) was 85%. For the same compound, the “GR20 ABUTH” value [1] was <8.75 g ai/ha, the “GR50 ABUTH” value [1] was 6.42 g ai/ha and the “GR80 ABUTH” value [1] was 38.1 g ai/ha. For the same compound, the pest or weed control at 140 g/ha [2] was 100%, the pest or weed control at 8.75 g/ha [2] was 90% and the pest or weed control at 17.5 g/ha [2] was 100%. For the same compound, the pest or weed control at 35 g/ha [2] was 100%, the pest or weed control at 70 g/ha [2] was 100% and the “Visual Growth Reduction (%)-14 Days after Application CHEAL” value [2] was 100%. For the same compound, the “GR20 CHEAL” value [2] was <8.75 g ai/ha, the “GR50 CHEAL” value [2] was <8.75 g ai/ha and the “GR80 CHEAL” value [2] was <8.75 g ai/ha. For the same compound, the pest or weed control at 140 g/ha [3] was 20%, the pest or weed control at 140 g/ha [4] was 0% and the pest or weed control at 140 g/ha [5] was 100%. For the same compound, the pest or weed control at 140 g/ha [6] was 5%, the “GR20 ZEAMX” value (ZEAMX: corn (Zea mays)) was 132 g ai/ha and the “GR50 ZEAMX” value (ZEAMX: corn (Zea mays)) was >140 g ai/ha. The “GR80 ZEAMX” value (ZEAMX: corn (Zea mays)) was >140 g ai/ha, the pest or weed control at 140 g/ha (ZEAMX: corn (Zea mays); Table 3, 140 g ai/ha) was 0% and the pest or weed control at 8.75 g/ha (ZEAMX: corn (Zea mays)) was 0%. For the same compound, the pest or weed control at 17.5 g/ha (ZEAMX: corn (Zea mays)) was 0%, the pest or weed control at 35 g/ha (ZEAMX: corn (Zea mays)) was 0% and the pest or weed control at 70 g/ha (ZEAMX: corn (Zea mays)) was 10%. The pest or weed control at 140 g/ha (ZEAMX: corn (Zea mays); Table 4, 140 g ai/ha) was 20% and the melting point was 139 to 144 °C.
For `COc1c(C(=O)O)nc(-c2ccc(Cl)cc2)c(F)c1N` [Compound 47], the pest or weed control at 140 g/ha ([1]; Table 3, 140 g ai/ha) was 100%, the pest or weed control at 8.75 g/ha [1] was 90% and the pest or weed control at 17.5 g/ha [1] was 95%. For the same compound, the pest or weed control at 35 g/ha [1] was 95%, the pest or weed control at 70 g/ha [1] was 100% and the pest or weed control at 140 g/ha ([1]; Table 4, 140 g ai/ha) was 100%. The “GR20 ABUTH” value [1] was <8.75 g ai/ha, the “GR50 ABUTH” value [1] was <8.75 g ai/ha and the “GR80 ABUTH” value [1] was <8.75 g ai/ha. For the same compound, the pest or weed control at 140 g/ha [2] was 100%, the pest or weed control at 8.75 g/ha [2] was 90% and the pest or weed control at 17.5 g/ha [2] was 100%. For the same compound, the pest or weed control at 35 g/ha [2] was 100%, the pest or weed control at 70 g/ha [2] was 100% and the “Visual Growth Reduction (%)-14 Days after Application CHEAL” value [2] was 100%. The “GR20 CHEAL” value [2] was <8.75 g ai/ha, the “GR50 CHEAL” value [2] was <8.75 g ai/ha and the “GR80 CHEAL” value [2] was <8.75 g ai/ha. It also gave a pest or weed control at 140 g/ha [3] of 100%, a pest or weed control at 140 g/ha [4] of 100% and a pest or weed control at 140 g/ha [5] of 100%. For the same compound, the pest or weed control at 140 g/ha [6] was 45%, the “GR20 ZEAMX” value (ZEAMX: corn (Zea mays)) was <8.75 g ai/ha and the “GR50 ZEAMX” value (ZEAMX: corn (Zea mays)) was 12.6 g ai/ha. The “GR80 ZEAMX” value (ZEAMX: corn (Zea mays)) was 74.1 g ai/ha, the pest or weed control at 140 g/ha (ZEAMX: corn (Zea mays); Table 3, 140 g ai/ha) was 85% and the pest or weed control at 8.75 g/ha (ZEAMX: corn (Zea mays)) was 40%. For the same compound, the pest or weed control at 17.5 g/ha (ZEAMX: corn (Zea mays)) was 55%, the pest or weed control at 35 g/ha (ZEAMX: corn (Zea mays)) was 75% and the pest or weed control at 70 g/ha (ZEAMX: corn (Zea mays)) was 80%. For the same compound, the pest or weed control at 140 g/ha (ZEAMX: corn (Zea mays); Table 4, 140 g ai/ha) was 85%.
Work on `COC(=O)c1nc(-c2ccc(Cl)c(OC)c2F)c(F)c(N)c1OC` [Compound 34] yielded a pest or weed control at 140 g/ha ([1]; Table 3, 140 g ai/ha) of 100%, a pest or weed control at 140 g/ha [2] of 100% and a pest or weed control at 140 g/ha [3] of 100%. For the same compound, the pest or weed control at 140 g/ha [4] was 100%, the pest or weed control at 140 g/ha [5] was 100% and the pest or weed control at 140 g/ha [6] was 10%. It also gave a pest or weed control at 140 g/ha (ZEAMX: corn (Zea mays); Table 3, 140 g ai/ha) of 90% and a melting point of 133.5 to 135.5 °C.
